Results on nine compounds are retold here after ChEMBL document CHEMBL1667731, “N-hydroxypyridones, phenylhydrazones, and a quinazolinone from Isaria farinosa” (J Nat Prod, 2011).

In one assay the test system is A549. Description: Cytotoxicity against human A549 cells assessed as inhibition of cell viability by MTT assay. Format: functional, cell-based.
Another assay concerns Streptococcus pneumoniae. Description: Antibacterial activity against Streptococcus pneumoniae CGMCC 1.1692 after 24 hrs. It is filed as functional, organism-based. The note with it: CGMCC 1.1692, 24 h.
A further assay relates to Staphylococcus aureus. Description: Antibacterial activity against Staphylococcus aureus CGMCC 1.2465 after 24 hrs. The note with it: CGMCC 1.2465, 24 h.
A further assay deals with Candida albicans. Description: Antifungal activity against Candida albicans CGMCC 2.2086 after 24 hrs. Format: functional, organism-based. The note with it: CGMCC 2.2086, 24 h.

SMILES strings stand for the structures. pIC50: −log10 of the molar value.

Turning to `O=c1[nH]c(Cc2ccc(O)cc2)nc2ccccc12`, the pIC50 with A549 (Homo sapiens, A549) is under 3.92; in the assay with A549 (a549), under 3.92; with Streptococcus pneumoniae, under 3.82; in the assay with Staphylococcus aureus, under 3.82.
Turning to `C[C@@H]1[C@H](O)[C@@H](C)/C=C/C=C/C=C/C=C/C=C/C=C/C=C/[C@H](O[C@@H]2O[C@H](C)[C@@H](O)[C@H](N)[C@@H]2O)C[C@@H]2O[C@](O)(C[C@@H](O)C[C@@H](O)[C@H](O)CC[C@@H](O)C[C@@H](O)CC(=O)O[C@H]1C)C[C@H](O)[C@H]2C(=O)O` [AMPHOTERICIN B], the pIC50 in the assay with Candida albicans is 6.14.
On to `CC1(C)S[C@@H]2[C@H](NC(=O)[C@H](N)c3ccccc3)C(=O)N2[C@H]1C(=O)O` [AMPICILLIN], for which the pIC50 with Streptococcus pneumoniae was 5.97; with Staphylococcus aureus, 7.22.
For `C/C(=N\Nc1ccccc1C(=O)O)C(=O)NCC(=O)O` [FARYLHYDRAZONE A], the negative-log IC50 (pIC50) with A549 (Homo sapiens, A549) is under 3.92; with A549 (a549), under 3.92; in the assay with Streptococcus pneumoniae it was under 3.82; in the assay with Staphylococcus aureus, under 3.82.
Turning to `C/C(=N\Nc1ccccc1C(=O)O)C(=O)O` [FARYLHYDRAZONE B], the pIC50 in the assay with A549 (Homo sapiens, A549) was under 3.92; in the assay with A549 (a549), under 3.92; in the assay with Streptococcus pneumoniae it was under 3.82; with Staphylococcus aureus it was under 3.82.
In the case of `CC[C@@H](C)C[C@@H](C)/C=C(C)/C=C/C=C/C(=O)c1c(O)c([C@]2(O)CC[C@@H](O)CC2)cn(O)c1=O` [MILITARINONE A], the pIC50 was 5.76 in the assay with A549 (Homo sapiens, A549); under 3.82 in the assay with Streptococcus pneumoniae; under 3.82 with Candida albicans; under 3.82 in the assay on Staphylococcus aureus.
Consider `CC[C@@H](C)C[C@@H](C)/C=C(C)/C=C/C=C/C(=O)c1c(O)c(-c2ccc(O)cc2)c[nH]c1=O` [MILITARINONE B], for which the pIC50 with A549 (Homo sapiens, A549) is under 3.92; with Streptococcus pneumoniae, 5.59; in the assay with Candida albicans it was 4.36; in the assay with Staphylococcus aureus, 5.68.
In the same order, the values of `CC[C@@H](C)C[C@@H](C)/C=C(C)/C=C/C=C/C(=O)c1c(O)c(C2=CC[C@@H](O)CC2)cn(O)c1=O` [MILITARINONE E] are 5.80, under 3.82, under 3.82 and under 3.82.
As to `CC[C@@H](C)C[C@@H](C)/C=C(C)/C=C/C=C/C(=O)c1c(O)c([C@]23CC[C@H](CC2)O3)cn(O)c1=O` [MILITARINONE F], the pIC50 is under 3.92 in the assay on A549 (Homo sapiens, A549); under 3.92 in the assay with A549 (a549); under 3.82 in the assay with Streptococcus pneumoniae; under 3.82 with Staphylococcus aureus.
